In this test the target is recombinant human S1P1 receptor (Homo sapiens, UniProt P21453). Put plainly: GTPγS assay to determine EC50 values. The conditions noted are these: 35S-GTPγS binding, membrane preparations of CHO cells expressing recombinant human S1P1 receptor. The format is biochemical. As to the method:
The pH is 7.4. Test compounds are dissolved and diluted in 100% DMSO and pre-incubated at room temperature for 30 min in 150 μl of the above assay buffer, in the absence of ^35S-GTPγS. After addition of 50 μl of ^35S-GTPγS, the assay is incubated for 1 h at room temperature. […] Membrane-bound ^35S-GTPγS is measured with a TopCount from Packard Biosciences.
Specific binding is determined by subtracting non-specific binding from maximal binding. Maximal binding is the amount of cpm bound to the Multiscreen plate in the presence of 10 μM of S1P. Non-specific binding is the amount of binding in the absence of an agonist in the assay.
The EC50 values were determined according to the method described above.
A general note: GTPγS resists hydrolysis and so accumulates on activated G proteins.

Data on 15 compounds can be found in US7846964B2, “Thiophene derivatives as spingosine-1-phosphate-1 receptor agonists” (Actelion Pharmaceuticals Ltd., priority 2005, dated 2010).

recombinant human S1P1 receptor, sequence (P21453 whole entry): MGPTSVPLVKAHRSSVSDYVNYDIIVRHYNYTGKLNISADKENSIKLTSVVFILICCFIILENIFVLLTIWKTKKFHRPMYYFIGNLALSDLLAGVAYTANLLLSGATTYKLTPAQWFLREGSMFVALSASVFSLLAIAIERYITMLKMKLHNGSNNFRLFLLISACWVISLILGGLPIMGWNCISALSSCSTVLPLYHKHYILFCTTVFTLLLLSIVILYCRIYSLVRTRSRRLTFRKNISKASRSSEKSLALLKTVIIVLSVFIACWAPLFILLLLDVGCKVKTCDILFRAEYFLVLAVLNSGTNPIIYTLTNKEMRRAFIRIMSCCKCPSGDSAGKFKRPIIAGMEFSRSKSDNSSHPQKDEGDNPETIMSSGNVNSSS

Broadly, the EC50 is the concentration giving half of the maximal effect. Consider `Cc1sc(C(=O)CCc2ccc(CC(O)CO)cc2)c2c1[C@H]1[C@@H](C2)C1(C)C` (stereo partly drawn) [Example 1, 3-[4-((2S/R)-2,3-dihydroxy-propyl)-phenyl]-1-((1aS,5aR)-1,1,2-trimethyl-1,1a,5,5a-tetrahydro-3-thia-cyclopropa[a]pentalen-4-yl)-propan-1-one], for which the EC50 amounted to 12 nM.

With `Cc1sc(C(=O)CCc2ccc(CCCN)cc2)c2c1[C@H]1[C@@H](C2)C1(C)C` [Example 2], the EC50 came to 3 nM.

As to `Cc1sc(C(=O)CCc2ccc(CCC(N)=O)cc2)c2c1[C@H]1[C@@H](C2)C1(C)C` [Example 13], the concentration giving a half-maximal response (EC50) turned out to be 13 nM.

Consider `Cc1sc(C(=O)CCc2ccc(C(=O)NCCN)cc2)c2c1[C@H]1[C@@H](C2)C1(C)C` [Example 31], for which the half-maximal effective concentration (EC50) was found to be 6 nM.

As to `Cc1cc(CCC(=O)c2sc(C)c3c2C[C@@H]2[C@H]3C2(C)C)ccc1OCCN(C)C` [Example 37], the EC50 was determined as 58 nM.

In the case of `Cc1cc(CCC(=O)c2sc(C)c3c2CC2C3C2(C)C)ccc1OCC(O)CNCCC(=O)O` (stereo not drawn) [Example 48], the EC50 is 2 nM.

Consider `Cc1sc(C(=O)CCc2ccc(OCC(O)CNCCC(=O)O)c(Cl)c2)c2c1C1C(C2)C1(C)C` (stereo not drawn) [Example 60], for which the 50% effective concentration (EC50) is 1.4 nM.

Consider `Cc1cc(CCC(=O)c2sc(C)c3c2C[C@@H]2[C@H]3C2(C)C)cc(C)c1OCC(O)CN` (stereo partly drawn) [Example 99, 3-[4-(3-amino-2-hydroxy-propoxy)-3,5-dimethyl-phenyl]-1-((1aS,5aR)-1,1,2-trimethyl-1,1a,5,5a-tetrahydro-3-thia-cyclopropa[a]pentalen-4-yl)-propan-1-one], for which the concentration for a half-maximal effect (EC50) stood at 1.1 nM.

For `COc1cc(CCC(=O)c2sc(C)c3c2CC2C3C2(C)C)cc(Cl)c1OCCN1CCC(C(=O)O)C1` (stereo not drawn) [Example 149], the concentration for a half-maximal effect (EC50) stood at 2 nM.

As for `COc1cc(CCC(=O)c2sc(C)c3c2CC2C3C2(C)C)cc(Cl)c1OCC(O)CN1CCNCC1` (stereo not drawn) [Example 175], the half-maximal effective concentration (EC50) was determined as 28 nM.

With `COCC(O)COc1c(C)cc(CCC(=O)c2sc(C)c3c2C[C@@H]2[C@H]3C2(C)C)cc1C` (stereo partly drawn) [Example 233, 3-[4-(2-Hydroxy-3-methoxy-propoxy)-3,5-dimethyl-phenyl]-1-((1aS,5aR)-1,1,2-trimethyl-1,1a,5,5a-tetrahydro-3-thia-cyclopropa[a]pentalen-4-yl)-propan-1-one], the EC50 came out at 2.3 nM.

`Cc1cc(CCC(=O)c2sc(C)c3c2C[C@@H]2[C@H]3C2(C)C)cc(C)c1OCC(O)CNC(=O)CN` (stereo partly drawn) [Example 234, 2-amino-N-(3-{2,6-dimethyl-4-[3-oxo-3-((1aS,5aR)-1,1,2-trimethyl-1,1a,5,5a-tetrahydro-3-thia-cyclopropa[a]pentalen-4-yl)-propyl]-phenoxy}-2-hydroxy-propyl)-acetamide]: the EC50 was 2.7 nM.

For the compound `Cc1cc(CCC(=O)c2sc(C)c3c2C[C@@H]2[C@H]3C2(C)C)cc(C)c1CCC(=O)NC(CO)CO` [Example 237, 3-{2,6-Dimethyl-4-[3-oxo-3-((1aS,5aR)-1,1,2-trimethyl-1,1a,5,5a-tetrahydro-3-thia-cyclopropa [a]pentalen-4-yl)-propyl]-phenyl}-N-(2-hydroxy-1-hydroxymethyl-ethyl)-propionamide], the concentration for a half-maximal effect (EC50) is 2.9 nM.

As for `Cc1cc(CCC(=O)c2sc(C)c3c2C[C@@H]2[C@H]3C2(C)C)cc(C)c1CC(O)CO` (stereo partly drawn) [Example 239, 3-[4-(2,3-dihydroxy-propyl)-3,5-dimethyl-phenyl]-1-((1aS,5aR)-1,1,2-trimethyl-1,1a,5,5a-tetrahydro-3-thia-cyclopropa[a]pentalen-4-yl)-propan-1-one], the EC50 is 0.8 nM.

As for `CCc1cc(CCC(=O)c2sc(C)c3c2CC2C3C2(C)C)cc(C)c1OCC(O)CNC(=O)CO` (stereo not drawn) [Example 244], the EC50 came to 1.1 nM.
